How the values were obtained:
Nitrosospira multiformis = test: Nitrification inhibition assay with Nitrosospira multiformis (nitrite level after 24 h); format: cell-based; conditions: for IC50 / activity at 100 µM: Nitrosospira multiformis; for IC50: 8-point dose response, 2 to 100 μM, read-out: IC50; for activity at 100 µM: tested concentration 100 μM, 24 h, normalized to DMSO (100%) and 100 μM DMP (0%), read-out: Nitrification at tested concentration (0 = maximum activity)
In short: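 Dense N. multiformis cultures (5× concentrated in 181-medium) with ammonium were incubated 24 h at 30° C with shaking, then nitrite measured by Griess reagent at 540 nm. Relative nitrification normalised per plate to DMSO and 100 μM DMP controls; IC50 from logistic fit of 8-point doses 2-100 μM.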

Nitrosomonas europaea = test: Nitrification inhibition assay with Nitrosomonas europaea (nitrite level after 24 h); format: cell-based; conditions: for IC50 / activity at 100 µM: Nitrosomonas europaea; for IC50: 8-point dose response, 2 to 100 μM, read-out: IC50; for activity at 100 µM: tested concentration 100 μM, 24 h, normalized to DMSO (100%) and 100 μM DMP (0%), read-out: Nitrification (%) at tested concentration (0 = maximum activity)
In short: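 Fivefold-concentrated N. europaea culture with ammonium incubated 24 h at 28 °C, shaken, with compound (single-point screen at 50 μM final; dose–response 2–100 μM, 8 points, 1.75-fold steps). Nitrite measured by Griess reagent at 540 nm, normalised per plate to 1% DMSO and 100 μM DMP controls; IC50 from logistic fit.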

| IC50 (Nitrosospira multiformis) [µM] | IC50 (Nitrosomonas europaea) [µM] | Structure (SMILES) | activity at 100 µM (Nitrosospira multiformis) [%] | activity at 100 µM (Nitrosomonas europaea) [%] | nitrification inhibition, in words (Nitrosospira multiformis) | nitrification inhibition, in words (Nitrosomonas europaea) | Average nitrification [%] in Nitrosospira multiformis (Nitrosospira multiformis; 2 μM) [%] | Average nitrification [%] in Nitrosospira multiformis (Nitrosospira multiformis; 3.5 μM) [%] | Average nitrification [%] in Nitrosospira multiformis (Nitrosospira multiformis; 6 μM) [%] | Average nitrification [%] in Nitrosospira multiformis (Nitrosospira multiformis; 11 μM) [%] | Average nitrification [%] in Nitrosospira multiformis (Nitrosospira multiformis; 19 μM) [%] | Average nitrification [%] in Nitrosospira multiformis (Nitrosospira multiformis; 33 μM) [%] | Average nitrification [%] in Nitrosospira multiformis (Nitrosospira multiformis; 57 μM) [%] | Average nitrification [%] in Nitrosospira multiformis (Nitrosospira multiformis; 100 μM) [%] | Average nitrification [%] in Nitrosomonas europaea (Nitrosomonas europaea; 2 μM) [%] | Average nitrification [%] in Nitrosomonas europaea (Nitrosomonas europaea; 3.5 μM) [%] | Average nitrification [%] in Nitrosomonas europaea (Nitrosomonas europaea; 6 μM) [%] | Average nitrification [%] in Nitrosomonas europaea (Nitrosomonas europaea; 11 μM) [%] | Average nitrification [%] in Nitrosomonas europaea (Nitrosomonas europaea; 19 μM) [%] | Average nitrification [%] in Nitrosomonas europaea (Nitrosomonas europaea; 33 μM) [%] | further results |
| --- | --- | --- | --- | --- | --- | --- | --- | --- | --- | --- | --- | --- | --- | --- | --- | --- | --- | --- | --- | --- | --- |
| < 10 | < 6 | S=C1NCCO1 [Example 7] | 0 | 0 |  |  |  |  |  |  |  |  |  |  |  |  |  |  |  |  |  |
| < 3.5 | 11 | CN(Cc1nc2ccccc2s1)CN1CCOC1=S [Example 5, 3-[[1,3-benzothiazol-2-ylmethyl(methyl)amino]methyl]-1,3-oxazolidine-2-thione] | 0 | 0 | strong nitrification inhibition | strong nitrification inhibition |  |  |  |  |  |  |  |  |  |  |  |  |  |  |  |
| < 0.8 | < 2 | CN(Cc1c(Cl)nc2sccn12)CN1CCSC1=S [Example 1, 3-[[(6-chloroimidazo[2,1-b][1,3]thiazol-5-yl)methyl-methylamino]methyl]-1,3-thiazolidine-2-thione] | 0 | 0 | strongly inhibited nitrification | strongly inhibited nitrification |  |  |  |  |  |  |  |  |  |  |  |  |  |  |  |
| 140 | 12 | CSc1nccs1 [Example 25, 2-(methylsulfanyI)-1,3-thiazole] | 53 | 2 |  |  | 81 | 80 | 80 | 76 | 74 | 67 | 62 | 53 | 85 | 76 | 73 | 58 | 50 | 32 | Average nitrification [%] in Nitrosomonas europaea (Nitrosomonas europaea; 57 μM): 20%; Average nitrification [%] in Nitrosomonas europaea (Nitrosomonas europaea; 100 μM): 2% |
| 1.3 | 13 | S=c1[nH]ccs1 [Example 24, 3H-1,3-thiazole-2-thione] | 0 | 1 | very strong effect | nearly completely inhibits nitrification | 25 | 4 | 0 | 0 | 0 | 0 | 0 | 0 | 79 | 78 | 76 | 74 | 60 | 43 | Average nitrification [%] in Nitrosomonas europaea (Nitrosomonas europaea; 57 μM): 20%; Average nitrification [%] in Nitrosomonas europaea (Nitrosomonas europaea; 100 μM): 1% |
